# Test results: article PMC9516332 (Frontiers in Oncology, 2022)
# pIC50: −log10 of the molar value. Where two headings read alike, the source gives them in different places.
# Assays:
# [1] = system: 134 cancer cell lines; test: Cell viability assay (ATPlite, 72 hours), IC50 on cancer cell line panel
# [2] = system: AP-1060 (ETV6-NTRK3); test: Cell viability assay; details: read-out: IC50 in cell proliferation assay
smiles,measurement,setting,value
Cn1cc(-c2cc3c(N4CCN(c5ncc([C@@](C)(N)c6ccc(F)cc6)cn5)CC4)ncnn3c2)cn1 [avapritinib],pIC50,"[1]; HEC-6, read-out: IC50 in cell proliferation assay",4.68
same,pIC50,"[1]; Homo sapiens, 769-P, read-out: IC50 in cell proliferation assay",5.52
same,pIC50,"[1]; Homo sapiens, 786-0, read-out: IC50 in cell proliferation assay",4.93
same,pIC50,"[1]; Homo sapiens, A 172, read-out: IC50 in cell proliferation assay",5.23
same,pIC50,"[1]; Homo sapiens, A204, read-out: IC50 in cell proliferation assay",6.77
same,pIC50,"[1]; Homo sapiens, A498, read-out: IC50 in cell proliferation assay",4.81
same,pIC50,"[1]; Homo sapiens, A549, read-out: IC50 in cell proliferation assay",4.69
same,pIC50,"[1]; Homo sapiens, A704, read-out: IC50 in cell proliferation assay",4.64
same,pIC50,"[1]; Homo sapiens, A-375, read-out: IC50 in cell proliferation assay",4.75
same,pIC50,"[1]; Homo sapiens, A-427, read-out: IC50 in cell proliferation assay",5.10
same,pIC50,"[1]; Homo sapiens, ACHN, read-out: IC50 in cell proliferation assay",4.83
same,pIC50,"[1]; Homo sapiens, AN3-CA, read-out: IC50 in cell proliferation assay",4.74
same,pIC50,"[1]; Homo sapiens, ASPC1, read-out: IC50 in cell proliferation assay",< 4.50
same,pIC50,"[1]; Homo sapiens, AU565, read-out: IC50 in cell proliferation assay",5.00
same,pIC50,"[1]; Homo sapiens, BT-20, read-out: IC50 in cell proliferation assay",4.56
same,pIC50,"[1]; Homo sapiens, BT-474, read-out: IC50 in cell proliferation assay",5.11
same,pIC50,"[1]; Homo sapiens, BT-549, read-out: IC50 in cell proliferation assay",5.29
same,pIC50,"[1]; Homo sapiens, BXPC-3, read-out: IC50 in cell proliferation assay",6.53
same,pIC50,"[1]; Homo sapiens, C-33-A, read-out: IC50 in cell proliferation assay",5.33
same,pIC50,"[1]; Homo sapiens, CAL-27, read-out: IC50 in cell proliferation assay",4.96
same,pIC50,"[1]; Homo sapiens, CCF-STTG1, read-out: IC50 in cell proliferation assay",5.25
same,pIC50,"[1]; Homo sapiens, CCRF-CEM, read-out: IC50 in cell proliferation assay",5.08
same,pIC50,"[1]; Homo sapiens, COLO 205, read-out: IC50 in cell proliferation assay",4.97
same,pIC50,"[1]; Homo sapiens, COLO-829, read-out: IC50 in cell proliferation assay",5.00
same,pIC50,"[1]; Homo sapiens, DLD-1, read-out: IC50 in cell proliferation assay",4.82
same,pIC50,"[1]; Homo sapiens, DU-145, read-out: IC50 in cell proliferation assay",5.04
same,pIC50,"[1]; Homo sapiens, DU-4475, read-out: IC50 in cell proliferation assay",5.15
same,pIC50,"[1]; Homo sapiens, Daoy, read-out: IC50 in cell proliferation assay",4.56
same,pIC50,"[1]; Homo sapiens, DoTc2-4510, read-out: IC50 in cell proliferation assay",4.79
same,pIC50,"[1]; Homo sapiens, EOL1, read-out: IC50 in cell proliferation assay",9.25
same,pIC50,"[1]; Homo sapiens, FaDu, read-out: IC50 in cell proliferation assay",5.03
same,pIC50,"[1]; Homo sapiens, G-361, read-out: IC50 in cell proliferation assay",5.03
same,pIC50,"[1]; Homo sapiens, HCC827, read-out: IC50 in cell proliferation assay",4.85
same,pIC50,"[1]; Homo sapiens, HCC4006, read-out: IC50 in cell proliferation assay",5.10
same,pIC50,"[1]; Homo sapiens, HCT-15, read-out: IC50 in cell proliferation assay",5.20
same,pIC50,"[1]; Homo sapiens, HCT-116, read-out: IC50 in cell proliferation assay",5.06
same,pIC50,"[1]; Homo sapiens, HEC-1, read-out: IC50 in cell proliferation assay",4.77
same,pIC50,"[1]; Homo sapiens, HEC-1B, read-out: IC50 in cell proliferation assay",5.06
same,pIC50,"[1]; Homo sapiens, HL-60, read-out: IC50 in cell proliferation assay",5.28
same,pIC50,"[1]; Homo sapiens, HT, read-out: IC50 in cell proliferation assay",4.64
same,pIC50,"[1]; Homo sapiens, HT-1080, read-out: IC50 in cell proliferation assay",5.04
same,pIC50,"[1]; Homo sapiens, Hs746T, read-out: IC50 in cell proliferation assay",5.74
same,pIC50,"[1]; Homo sapiens, Hs-578T, read-out: IC50 in cell proliferation assay",4.77
same,pIC50,"[1]; Homo sapiens, HuTu80, read-out: IC50 in cell proliferation assay",5.29
same,pIC50,"[1]; Homo sapiens, J82, read-out: IC50 in cell proliferation assay",4.61
same,pIC50,"[1]; Homo sapiens, Jurkat E6.1, read-out: IC50 in cell proliferation assay",5.39
same,pIC50,"[1]; Homo sapiens, K562, read-out: IC50 in cell proliferation assay",5.22
same,pIC50,"[1]; Homo sapiens, KATO III, read-out: IC50 in cell proliferation assay",5.18
same,pIC50,"[1]; Homo sapiens, KG-1, read-out: IC50 in cell proliferation assay",5.72
same,pIC50,"[1]; Homo sapiens, KLE, read-out: IC50 in cell proliferation assay",5.25
same,pIC50,"[1]; Homo sapiens, KMS-11, read-out: IC50 in cell proliferation assay",5.18
same,pIC50,"[1]; Homo sapiens, KU812, read-out: IC50 in cell proliferation assay",5.51
same,pIC50,"[1]; Homo sapiens, Kasumi 1, read-out: IC50 in cell proliferation assay",7.12
same,pIC50,"[1]; Homo sapiens, LC-2-ad, read-out: IC50 in cell proliferation assay",5.31
same,pIC50,"[1]; Homo sapiens, LNCaP-Clone-FGC, read-out: IC50 in cell proliferation assay",4.80
same,pIC50,"[1]; Homo sapiens, LS174T, read-out: IC50 in cell proliferation assay",5.18
same,pIC50,"[1]; Homo sapiens, LS-411N, read-out: IC50 in cell proliferation assay",4.97
same,pIC50,"[1]; Homo sapiens, LoVo, read-out: IC50 in cell proliferation assay",5.19
same,pIC50,"[1]; Homo sapiens, MCF7, read-out: IC50 in cell proliferation assay",4.76
same,pIC50,"[1]; Homo sapiens, MDA-MB-231, read-out: IC50 in cell proliferation assay",5.07
same,pIC50,"[1]; Homo sapiens, MDA-MB-453, read-out: IC50 in cell proliferation assay",5.97
same,pIC50,"[1]; Homo sapiens, MDA-MB-468, read-out: IC50 in cell proliferation assay",4.90
same,pIC50,"[1]; Homo sapiens, MG-63, read-out: IC50 in cell proliferation assay",4.95
same,pIC50,"[1]; Homo sapiens, MIA PaCa-2, read-out: IC50 in cell proliferation assay",4.96
same,pIC50,"[1]; Homo sapiens, MKN-45, read-out: IC50 in cell proliferation assay",5.30
same,pIC50,"[1]; Homo sapiens, MOLM-13, read-out: IC50 in cell proliferation assay",6.33
same,pIC50,"[1]; Homo sapiens, MOLT-4, read-out: IC50 in cell proliferation assay",5.18
same,pIC50,"[1]; Homo sapiens, MV4-11, read-out: IC50 in cell proliferation assay",6.33
same,pIC50,"[1]; Homo sapiens, MeWo, read-out: IC50 in cell proliferation assay",< 4.50
same,pIC50,"[1]; Homo sapiens, NCCIT, read-out: IC50 in cell proliferation assay",5.45
same,pIC50,"[1]; Homo sapiens, NCI-H82, read-out: IC50 in cell proliferation assay",5.62
same,pIC50,"[1]; Homo sapiens, NCI-H460, read-out: IC50 in cell proliferation assay",4.80
same,pIC50,"[1]; Homo sapiens, NCI-H661, read-out: IC50 in cell proliferation assay",5.78
same,pIC50,"[1]; Homo sapiens, NCI-H716, read-out: IC50 in cell proliferation assay",5.17
same,pIC50,"[1]; Homo sapiens, NCI-H1650, read-out: IC50 in cell proliferation assay",4.71
same,pIC50,"[1]; Homo sapiens, NCI-H1975, read-out: IC50 in cell proliferation assay",4.95
same,pIC50,"[1]; Homo sapiens, NCI-H2228, read-out: IC50 in cell proliferation assay",5.00
same,pIC50,"[1]; Homo sapiens, OVCAR-3, read-out: IC50 in cell proliferation assay",4.66
same,pIC50,"[1]; Homo sapiens, PFSK-1, read-out: IC50 in cell proliferation assay",4.86
same,pIC50,"[1]; Homo sapiens, RL95-2, read-out: IC50 in cell proliferation assay",4.55
same,pIC50,"[1]; Homo sapiens, RPMI-7951, read-out: IC50 in cell proliferation assay",4.87
same,pIC50,"[1]; Homo sapiens, RS4-11, read-out: IC50 in cell proliferation assay",4.68
same,pIC50,"[1]; Homo sapiens, Rec1, read-out: IC50 in cell proliferation assay",4.54
same,pIC50,"[1]; Homo sapiens, SHP77, read-out: IC50 in cell proliferation assay",5.65
same,pIC50,"[1]; Homo sapiens, SK-BR-3, read-out: IC50 in cell proliferation assay",5.08
same,pIC50,"[1]; Homo sapiens, SK-N-AS, read-out: IC50 in cell proliferation assay",4.68
same,pIC50,"[1]; Homo sapiens, SK-N-FI, read-out: IC50 in cell proliferation assay",< 4.50
same,pIC50,"[1]; Homo sapiens, SK-N-MC, read-out: IC50 in cell proliferation assay",5.19
same,pIC50,"[1]; Homo sapiens, SK-N-SH, read-out: IC50 in cell proliferation assay",5.13
same,pIC50,"[1]; Homo sapiens, SNU-5, read-out: IC50 in cell proliferation assay",5.03
same,pIC50,"[1]; Homo sapiens, SNU-16, read-out: IC50 in cell proliferation assay",5.69
same,pIC50,"[1]; Homo sapiens, SNU-C2B, read-out: IC50 in cell proliferation assay",4.98
same,pIC50,"[1]; Homo sapiens, SU-DHL-1, read-out: IC50 in cell proliferation assay",5.64
same,pIC50,"[1]; Homo sapiens, SU-DHL-6, read-out: IC50 in cell proliferation assay",5.50
same,pIC50,"[1]; Homo sapiens, SUP-T1, read-out: IC50 in cell proliferation assay",5.04
same,pIC50,"[1]; Homo sapiens, SW48, read-out: IC50 in cell proliferation assay",5.25
same,pIC50,"[1]; Homo sapiens, SW480, read-out: IC50 in cell proliferation assay",4.59
same,pIC50,"[1]; Homo sapiens, SW626, read-out: IC50 in cell proliferation assay",4.70
same,pIC50,"[1]; Homo sapiens, SW780, read-out: IC50 in cell proliferation assay",4.71
same,pIC50,"[1]; Homo sapiens, SW837, read-out: IC50 in cell proliferation assay",< 4.50
same,pIC50,"[1]; Homo sapiens, SW872, read-out: IC50 in cell proliferation assay",5.20
same,pIC50,"[1]; Homo sapiens, SW900, read-out: IC50 in cell proliferation assay",4.66
same,pIC50,"[1]; Homo sapiens, SW948, read-out: IC50 in cell proliferation assay",4.85
same,pIC50,"[1]; Homo sapiens, SW982, read-out: IC50 in cell proliferation assay",4.97
same,pIC50,"[1]; Homo sapiens, SW-620, read-out: IC50 in cell proliferation assay",< 4.50
same,pIC50,"[1]; Homo sapiens, T98G, read-out: IC50 in cell proliferation assay",6.43
same,pIC50,"[1]; Homo sapiens, TCC-SUP, read-out: IC50 in cell proliferation assay",5.57
same,pIC50,"[1]; Homo sapiens, THP-1, read-out: IC50 in cell proliferation assay",5.27
same,pIC50,"[1]; Homo sapiens, U2OS, read-out: IC50 in cell proliferation assay",4.79
same,pIC50,"[1]; Homo sapiens, U-87 MG, read-out: IC50 in cell proliferation assay",4.64
same,pIC50,"[1]; Homo sapiens, U-118-MG, read-out: IC50 in cell proliferation assay",5.96
same,pIC50,"[1]; Homo sapiens, UMUC3, read-out: IC50 in cell proliferation assay",5.26
same,pIC50,"[1]; Hs766T, read-out: IC50 in cell proliferation assay",< 4.50
same,pIC50,"[1]; L-82, read-out: IC50 in cell proliferation assay",5.08
same,pIC50,"[1]; Rh30, read-out: IC50 in cell proliferation assay",4.83
same,pIC50,[2],5.46
